Results reported in ChEMBL document CHEMBL3885881, “DrugMatrix”.

Organism: Rattus norvegicus
Test: DrugMatrix - Regimen: Daily Repeat
Assay type: toxicity, organism-based, Sprague-Dawley
Design: regimen Daily Repeat, gender Male, age 6-8 weeks
Conditions: in vivo, sc, 0 mg/kg, route subcutaneous, dose level Control, […]; for ABSOLUTE BASOPHIL / ABSOLUTE EOSINOPHIL / ABSOLUTE LYMPHOCYTE / ABSOLUTE MONOCYTE / ABSOLUTE SEGMENTED NEUTROPHIL / BASOPHIL / EOSINOPHIL / ERYTHROCYTE COUNT / HEMATOCRIT / HEMOGLOBIN / LEUKOCYTE COUNT / LYMPHOCYTE / MEAN CORPUSCULAR HEMOGLOBIN / MEAN CORPUSCULAR VOLUME / MONOCYTE / NEUTROPHIL / NUCLEATED RED BLOOD CELLS / PLATELET COUNT: tissue Blood; for ALANINE AMINOTRANSFERASE / ALBUMIN / ALKALINE PHOSPHATASE / ASPARTATE AMINOTRANSFERASE / BLOOD UREA NITROGEN / CARBON DIOXIDE / CHLORIDE / CHOLESTEROL / CREATINE PHOSPHOKINASE / CREATININE / GLUCOSE / LACTATE DEHYDROGENASE / LIPASE / PHOSPHORUS / POTASSIUM / SODIUM / TOTAL BILIRUBIN / TOTAL PROTEIN / URIC ACID: tissue Plasma

Question: Which results are given for `CC(C)(C)CC(C)(C)c1ccc(OCCOCC[N+](C)(C)Cc2ccccc2)cc1.[Cl-]` [BENZETHONIUM CHLORIDE]?
Answer: ABSOLUTE BASOPHIL (72 h, time 3 day): 0 CELLS/uL; ABSOLUTE EOSINOPHIL (72 h, time 3 day): 92.33 CELLS/uL; ABSOLUTE LYMPHOCYTE (72 h, time 3 day): 12247.5 CELLS/uL; ABSOLUTE MONOCYTE (72 h, time 3 day): 389.67 CELLS/uL; ABSOLUTE SEGMENTED NEUTROPHIL (72 h, time 3 day): 1320.5 CELLS/uL; BASOPHIL (72 h, time 3 day): 0%; EOSINOPHIL (72 h, time 3 day): 0.67%; ERYTHROCYTE COUNT (72 h, time 3 day): 5.45 x10E6/uL; HEMATOCRIT (72 h, time 3 day): 34.85%; HEMOGLOBIN (72 h, time 3 day): 12.97 G/DL; LEUKOCYTE COUNT (72 h, time 3 day): 14.05 x10E3/uL; LYMPHOCYTE (72 h, time 3 day): 87.33%; MEAN CORPUSCULAR HEMOGLOBIN (72 h, time 3 day): 23.78 pg; MEAN CORPUSCULAR VOLUME (72 h, time 3 day): 63.93 fL; MONOCYTE (72 h, time 3 day): 2.67%; NEUTROPHIL (72 h, time 3 day): 9.33%; NUCLEATED RED BLOOD CELLS (72 h, time 3 day): 0 /100WBC; PLATELET COUNT (72 h, time 3 day): 1174 x10E3/uL; ALANINE AMINOTRANSFERASE (72 h, time 3 day): 48.83 u/L; ALBUMIN (72 h, time 3 day): 4.23 G/DL; ALKALINE PHOSPHATASE (72 h, time 3 day): 351.5 u/L; ASPARTATE AMINOTRANSFERASE (72 h, time 3 day): 90 u/L; BLOOD UREA NITROGEN (72 h, time 3 day): 15.33 mg/dL; CARBON DIOXIDE (72 h, time 3 day): 23 mmol/L; CHLORIDE (72 h, time 3 day): 103.5 MEQ/L; CHOLESTEROL (72 h, time 3 day): 70.5 mg/dL; CREATINE PHOSPHOKINASE (72 h, time 3 day): 651.83 u/L; CREATININE (72 h, time 3 day): 0.22 mg/dL; GLUCOSE (72 h, time 3 day): 180.67 mg/dL; LACTATE DEHYDROGENASE (72 h, time 3 day): 165 u/L; LIPASE (72 h, time 3 day): 9.33 u/L; PHOSPHORUS (72 h, time 3 day): 12.03 mg/dL; POTASSIUM (72 h, time 3 day): 6.17 MEQ/L; SODIUM (72 h, time 3 day): 142.62 MEQ/L; TOTAL BILIRUBIN (72 h, time 3 day): 0.2 mg/dL; TOTAL PROTEIN (72 h, time 3 day): 5.73 G/DL; URIC ACID (72 h, time 3 day): 1.77 mg/dL; ABSOLUTE BASOPHIL (120 h, time 5 day): 0 CELLS/uL; ABSOLUTE EOSINOPHIL (120 h, time 5 day): 0 CELLS/uL; ABSOLUTE LYMPHOCYTE (120 h, time 5 day): 12736.67 CELLS/uL; ABSOLUTE MONOCYTE (120 h, time 5 day): 253.5 CELLS/uL; ABSOLUTE SEGMENTED NEUTROPHIL (120 h, time 5 day): 1193.17 CELLS/uL; BASOPHIL (120 h, time 5 day): 0%; EOSINOPHIL (120 h, time 5 day): 0%; ERYTHROCYTE COUNT (120 h, time 5 day): 5.72 x10E6/uL; HEMATOCRIT (120 h, time 5 day): 36.05%; HEMOGLOBIN (120 h, time 5 day): 13.62 G/DL; LEUKOCYTE COUNT (120 h, time 5 day): 14.18 x10E3/uL; LYMPHOCYTE (120 h, time 5 day): 89.33%; MEAN CORPUSCULAR HEMOGLOBIN (120 h, time 5 day): 23.83 pg; MEAN CORPUSCULAR VOLUME (120 h, time 5 day): 63.05 fL; MONOCYTE (120 h, time 5 day): 1.83%; NEUTROPHIL (120 h, time 5 day): 8.83%; NUCLEATED RED BLOOD CELLS (120 h, time 5 day): 0 /100WBC; PLATELET COUNT (120 h, time 5 day): 1322.17 x10E3/uL; ALANINE AMINOTRANSFERASE (120 h, time 5 day): 48.83 u/L; ALBUMIN (120 h, time 5 day): 4.27 G/DL; ALKALINE PHOSPHATASE (120 h, time 5 day): 295.17 u/L; ASPARTATE AMINOTRANSFERASE (120 h, time 5 day): 75.83 u/L; BLOOD UREA NITROGEN (120 h, time 5 day): 15.5 mg/dL; CARBON DIOXIDE (120 h, time 5 day): 30.5 mmol/L; CHLORIDE (120 h, time 5 day): 102.33 MEQ/L; CHOLESTEROL (120 h, time 5 day): 76.17 mg/dL; CREATINE PHOSPHOKINASE (120 h, time 5 day): 205.5 u/L; CREATININE (120 h, time 5 day): 0.2 mg/dL; GLUCOSE (120 h, time 5 day): 149.67 mg/dL; LACTATE DEHYDROGENASE (120 h, time 5 day): 124.5 u/L; LIPASE (120 h, time 5 day): 10 u/L; PHOSPHORUS (120 h, time 5 day): 10.93 mg/dL; POTASSIUM (120 h, time 5 day): 6.59 MEQ/L; SODIUM (120 h, time 5 day): 143.1 MEQ/L; TOTAL BILIRUBIN (120 h, time 5 day): 0.2 mg/dL; TOTAL PROTEIN (120 h, time 5 day): 6.05 G/DL; URIC ACID (120 h, time 5 day): 1.45 mg/dL
